{
  "source": "patent US20260327628A1",
  "about": "“AN RNA APTAMER THAT BINDS TO ASP7967 OR AN ANALOGUE THEREOF” (priority 2022, published 2026)",
  "key": {"AC17-4 RNA aptamer": {"target": "AC17-4 RNA aptamer", "experiment": "Affinity measurement by SPR, AC17-4 immobilized chip", "type": "binding", "conditions": "for Kd: 25 °C; for affinity for AC17-4 (in words): ASP2905 versus ASP7967", "method": "Affinity measurements of the aptamers with the ligands by SPR were performed as described by Chang et al.^53 with some modifications. Experiments were performed on Biacore T200 (Cytiva) at 25° C. For immobilization of the capture DNA (5′-/5AmMC6/[…]-3′ (SEQ ID NO: 32),/5AmMC6/: 5′ amino modifier C6, IDT), 1×HBS-N (10 mM HEPES, pH 7.4, 150 mM NaCl) was used as the running buffer. CM5 chip surface was washed by two injections of NaOH/NaCl solution (25 mM NaOH, 1 M NaCl) at 20 μl min^−1 for 30 s. Next, a solution containing 200 mM 1-ethyl-3-(3-dimethylaminopropyl) carbodiimide hydrochloride (EDC) and 50 mM N-hydroxysuccinimide (NHS) was injected into all flow cells at 10 μl min^−1 for 7 min to activate the surface carboxylic acid groups. Then, the capture DNA (20 μM) in 10 mM HEPES-KOH buffer (pH 7.5) supplemented with 0.6 mM cetyltrimethylammonium bromide was injected at 5 μl min^−1 for 10 min. The unreacted activated carboxylic acid groups were quenched by an injection of 1 M ethanolamine-HCl (pH 8.5) for 7 min at 10 μl min^−1. To remove the noncovalently adsorbed DNA on the chip surface, NaOH/NaCl solution was injected two times at 20 μl min^−1 for 30 s. The immobilized DNA levels were 2846±284 RU.\nThe dsDNA templates for in vitro transcription of the aptamers were prepared by primer extension of two oligo DNAs using Q5 High-Fidelity DNA Polymerase (NEB). AC17-4 RNA aptamer and its mutants containing 3′ poly(A) tail (Table 4) were synthesized by in vitro transcription using ScriptMAX Thermo T7 Transcription Kit (TOYOBO) according to the manufacturer's instructions. The reaction products were treated with 2 U TURBO DNase (Thermo Fisher Scientific) for 30 min at 37° C. and purified with RNA Clean & Concentrator-25 Kit (Zymo Research). RNA concentrations were determined by absorbance at 260 nm according to OligoCalc^54. RNA solutions (~3.6 μM) were prepared in water and denatured by heating at 80° C. for 3 min. After cooling at room temperature for few minutes, the RNA solutions were diluted with an equal volume of high salt buffer (10 mM Tris-HCl, pH 7.5, 1 M NaCl, 1 mM EDTA). Stock solutions of ASP2905 and ASP7967 in DMSO (20 mM, fumaric acid adduct, Astellas Pharma, Inc.) were prepared based on the weight. […] An aptamer ligand was injected at 30 μl min^−1 for 120 s to monitor association, and then the dissociation kinetics was monitored for 180 s in the SPR running buffer. […] The raw data were analysed by Biacore T200 Evaluation Software 1.0 using 1:1 Langmuir interaction model. […] Dissociation constant (KD) was determined from the ratio of the association and the dissociation rate constants (KD=koff/kon) or by equilibrium analysis. […]"}, "[1]": {"tested_on": "a8-AC17-4-CPP riboswitch (EGFP expression in HEK293 cells)", "experiment": "Riboswitch assay in HEK293 cells, a8-AC17-4-CPP, ligand response", "type": "cell-based", "conditions": "for fold induction at 5 µM: 48 h, 5 μM ligand, HEK293 cells, read-out: activation of EGFP / gene expression (ON/OFF)", "method": "HEK293 cells were cultured in Dulbecco's modified Eagle's medium (DMEM) supplemented with 10% heat-inactivated FBS (Gibco) containing 2 mM L-glutamine and 100 units ml^−1 of penicillin-streptomycin (DMEM-FBS). Cells were kept in a 37° C. incubator with 5% CO2 and passaged regularly upon reaching 90% confluency. Approximately 20 h prior to transfection, the cells were trypsinized, diluted to ~2.7×10^5 cells ml^−1 and 100 μl per well were seeded onto a 96-well plate. Cells in each well were cotransfected with 100 ng of the EGFP-aptazyme plasmid and 20 ng of pCMV-mCherry^27 (transfection control) using 0.3 μl of TransIT-293 Transfection Reagent (Mirus) according to the manufacturer's instructions. Five hours after transfection, the medium in each well was replaced with fresh medium with (up to 5 μM) or without ASP2905 or ASP7967. The aptamer ligands were dissolved at 1000× concentration in DMSO. Forty-eight hours after transfection, the medium in each well was replaced with 100 μl of phosphate buffered saline (PBS), and fluorescence intensity was measured by Infinite M1000 PRO microplate reader (Tecan). Fluorescence intensity was measured at 484 nm excitation/510 nm emission/5 nm bandwidth for EGFP, and at 587 nm excitation/610 nm emission/10 nm bandwidth for mCherry. Background fluorescence measured using untransfected cells was subtracted from the EGFP and mCherry fluorescence values. Then, EGFP fluorescence was normalized by mCherry fluorescence to account for variations in transfection efficiency and cell counts. All reported values are averages of three replicate wells.\nThe anti-Rz sequence was varied from 6 to 10 nucleotides, and the aptazyme was inserted in the 3′ UTR of the EGFP transcript.\nThe EGFP-riboswitch plasmid and an mCherry-expressing plasmid (transfection control) were cotransfected into HEK293 cells in the absence or presence (5 μM) of ASP2905 or ASP7967. EGFP and mCherry fluorescence was measured two days after transfection, and EGFP fluorescence was normalized by mCherry fluorescence to account for variability in transfection efficiency. […] We attribute this to the coincidental complementarity of the nucleotides preceding anti-Rz (CA) to the ribozyme sequence, making the effective anti-Rz sequence length longer than intended.\nThe riboswitch a8-AC17-4-CPP was further analyzed for the dose dependent response to ASP7967 (FIG. 6d)."}},
  "data": [
    {"smiles": "Fc1ccc(Nc2nc(NCc3ncccn3)nc(Nc3ccc(F)cc3)n2)cc1", "note": "[ASP7967]", "values": [
      {"measurement": "Kd", "setting": "AC17-4 RNA aptamer", "result": 12, "unit": "nM"},
      {"measurement": "affinity for AC17-4 (in words)", "setting": "AC17-4 RNA aptamer", "result": "comparable affinity"},
      {"measurement": "ASP7967 concentration at which riboswitch response mostly saturated", "setting": "[1]", "result": 5, "unit": "µM"},
      {"measurement": "fold induction at 5 µM", "setting": "[1]; Homo sapiens", "result": "~10"},
      {"measurement": "EC50", "setting": "[1]; Homo sapiens, HEK293, dose dependent response", "result": "~1100", "unit": "nM"}
    ]},
    {"smiles": "Fc1ccc(Nc2nc(NCc3ncccn3)nc(Nc3ccccc3)n2)cc1", "note": "[ASP2905, reference compound]", "values": [
      {"measurement": "Kd", "setting": "AC17-4 RNA aptamer", "result": 7.7, "unit": "nM"},
      {"measurement": "affinity for AC17-4 (in words)", "setting": "AC17-4 RNA aptamer", "result": "comparable affinity"},
      {"measurement": "fold induction at 5 µM", "setting": "[1]; Homo sapiens", "result": "~10"}
    ]}
  ]
}
